Where two headings read alike, the source gives them in different places.
Key:
Format in all cases: biochemical
JAK3 = JAK3 (Homo sapiens (Human), UniProt P52333); assay: JAK3 LANCE Ultra kinase assay
JAK1 = JAK1 (Homo sapiens (Human), UniProt P23458); assay: JAK1 LANCE Ultra kinase assay; conditions: for IC50: 38 uM ATP; for JAK2/JAK1: ratio of IC50 JAK2 to IC50 JAK1
Procedure: Inhibition test on activity of JAK kinase in vitro was carried out by the following methods.
JAK1 LANCE® Ultra assay, JAK2 LANCE® Ultra assay and JAK3 LANCE® Ultra assay were used to carry out the test separately, and kits of the above assays were supplied by PerkinElmer. […]
JAK1, JAK2 and JAK3 kinase, ATP and substrates were dissolved and diluted with buffers.
A test liquid was 2 nM Eu-W1024 anti-phosphotyrosine (PerkinElmer, AD0069). A stop buffer was 10 mM edetic acid (Intech, 1842C505).
2.5 μl of an 8-fold solution of the compound and 5 μl of a 4-fold solution of JAK1 or JAK2 or JAK3 kinase were added into a 384-well plate, respectively, and reacted for 10 minutes at room temperature. 2.5 μl of an 8-fold solution of ULight™-JAK-1 peptide/ATP was added and reacted for 90 minutes at room temperature. Finally, 5 μl of 4-fold edetic acid stop buffer and 5 μl of 4-fold test liquid of Eu-W1024 anti-phosphotyrosine were added and incubated for 60 minutes.
According to the formula: percentage of inhibition rate=(maximum value−transform value)/(maximum value−minimum value)×100, inhibition rate of each compound at various concentrations was calculated. The maximum value was the reference value of dimethyl sulfoxide added into the well plate, the minimum value was the blank value, and the transform value is the value obtained by the well of each compound. The IC50 values of the corresponding compounds were then obtained by fitting by using the XLFit fitting tool in excel.

JAK2 = JAK2 (Homo sapiens (Human), UniProt O60674); assay: JAK2 LANCE Ultra kinase assay; conditions: 12 uM ATP
Chain of JAK2 (O60674 whole entry): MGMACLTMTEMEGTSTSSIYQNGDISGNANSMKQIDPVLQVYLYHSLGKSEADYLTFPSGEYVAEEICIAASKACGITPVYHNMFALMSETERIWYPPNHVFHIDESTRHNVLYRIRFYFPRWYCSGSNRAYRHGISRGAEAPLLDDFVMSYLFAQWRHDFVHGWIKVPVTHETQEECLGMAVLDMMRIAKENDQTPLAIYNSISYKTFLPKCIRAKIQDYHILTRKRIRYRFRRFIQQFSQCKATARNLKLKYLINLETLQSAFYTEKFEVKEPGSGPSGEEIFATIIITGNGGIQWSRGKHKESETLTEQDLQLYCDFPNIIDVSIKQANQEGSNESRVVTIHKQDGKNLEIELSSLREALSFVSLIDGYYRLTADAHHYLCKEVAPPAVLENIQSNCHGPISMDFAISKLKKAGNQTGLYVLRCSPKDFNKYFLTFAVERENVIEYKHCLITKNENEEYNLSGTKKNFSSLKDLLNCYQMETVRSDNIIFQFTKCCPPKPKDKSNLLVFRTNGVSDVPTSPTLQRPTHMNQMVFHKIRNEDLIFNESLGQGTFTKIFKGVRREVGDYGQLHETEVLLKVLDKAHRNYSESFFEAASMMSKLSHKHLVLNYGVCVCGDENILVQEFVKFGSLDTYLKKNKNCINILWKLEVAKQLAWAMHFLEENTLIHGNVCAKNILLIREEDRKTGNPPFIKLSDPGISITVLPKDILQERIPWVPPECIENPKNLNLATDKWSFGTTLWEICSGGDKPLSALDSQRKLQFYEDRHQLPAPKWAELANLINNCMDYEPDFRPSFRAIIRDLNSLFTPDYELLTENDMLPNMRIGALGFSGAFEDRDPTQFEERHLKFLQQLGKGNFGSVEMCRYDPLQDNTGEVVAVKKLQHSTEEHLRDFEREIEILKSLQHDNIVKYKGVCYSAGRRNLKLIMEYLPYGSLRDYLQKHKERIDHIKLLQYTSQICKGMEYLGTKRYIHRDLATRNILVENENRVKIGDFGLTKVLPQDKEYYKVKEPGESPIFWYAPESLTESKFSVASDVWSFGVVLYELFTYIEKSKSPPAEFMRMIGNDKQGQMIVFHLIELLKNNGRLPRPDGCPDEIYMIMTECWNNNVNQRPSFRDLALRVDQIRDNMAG

Chain of JAK1 (P23458 whole entry): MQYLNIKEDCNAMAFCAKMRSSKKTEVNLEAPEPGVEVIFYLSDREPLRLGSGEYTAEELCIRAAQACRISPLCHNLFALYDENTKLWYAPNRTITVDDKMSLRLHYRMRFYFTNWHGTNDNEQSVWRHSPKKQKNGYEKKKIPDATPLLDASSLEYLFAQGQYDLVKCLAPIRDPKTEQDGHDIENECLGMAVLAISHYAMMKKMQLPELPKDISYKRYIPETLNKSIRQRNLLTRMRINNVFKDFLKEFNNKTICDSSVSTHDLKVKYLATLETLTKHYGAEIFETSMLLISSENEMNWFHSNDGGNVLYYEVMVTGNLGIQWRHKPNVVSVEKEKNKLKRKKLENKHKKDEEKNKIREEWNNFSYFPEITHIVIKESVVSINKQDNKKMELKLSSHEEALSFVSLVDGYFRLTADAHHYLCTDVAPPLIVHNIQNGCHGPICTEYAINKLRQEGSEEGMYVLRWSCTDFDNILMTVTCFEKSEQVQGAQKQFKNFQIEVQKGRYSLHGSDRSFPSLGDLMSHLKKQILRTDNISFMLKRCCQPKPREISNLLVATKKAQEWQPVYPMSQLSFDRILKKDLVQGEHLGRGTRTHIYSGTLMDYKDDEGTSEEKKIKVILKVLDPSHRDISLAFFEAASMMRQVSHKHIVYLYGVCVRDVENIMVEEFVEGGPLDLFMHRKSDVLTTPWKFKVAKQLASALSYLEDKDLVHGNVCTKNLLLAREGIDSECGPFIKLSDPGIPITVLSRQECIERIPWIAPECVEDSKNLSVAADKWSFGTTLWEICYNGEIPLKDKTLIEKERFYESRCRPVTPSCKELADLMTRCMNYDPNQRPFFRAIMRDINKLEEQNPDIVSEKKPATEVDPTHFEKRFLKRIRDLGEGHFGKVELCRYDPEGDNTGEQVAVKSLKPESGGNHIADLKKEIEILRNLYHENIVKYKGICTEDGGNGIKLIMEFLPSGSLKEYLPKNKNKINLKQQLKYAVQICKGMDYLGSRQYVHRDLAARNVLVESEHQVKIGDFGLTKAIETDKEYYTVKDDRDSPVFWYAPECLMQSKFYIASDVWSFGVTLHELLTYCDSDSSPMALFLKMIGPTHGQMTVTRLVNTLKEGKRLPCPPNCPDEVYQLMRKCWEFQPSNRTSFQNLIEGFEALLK
Chain of JAK3 (P52333 whole entry): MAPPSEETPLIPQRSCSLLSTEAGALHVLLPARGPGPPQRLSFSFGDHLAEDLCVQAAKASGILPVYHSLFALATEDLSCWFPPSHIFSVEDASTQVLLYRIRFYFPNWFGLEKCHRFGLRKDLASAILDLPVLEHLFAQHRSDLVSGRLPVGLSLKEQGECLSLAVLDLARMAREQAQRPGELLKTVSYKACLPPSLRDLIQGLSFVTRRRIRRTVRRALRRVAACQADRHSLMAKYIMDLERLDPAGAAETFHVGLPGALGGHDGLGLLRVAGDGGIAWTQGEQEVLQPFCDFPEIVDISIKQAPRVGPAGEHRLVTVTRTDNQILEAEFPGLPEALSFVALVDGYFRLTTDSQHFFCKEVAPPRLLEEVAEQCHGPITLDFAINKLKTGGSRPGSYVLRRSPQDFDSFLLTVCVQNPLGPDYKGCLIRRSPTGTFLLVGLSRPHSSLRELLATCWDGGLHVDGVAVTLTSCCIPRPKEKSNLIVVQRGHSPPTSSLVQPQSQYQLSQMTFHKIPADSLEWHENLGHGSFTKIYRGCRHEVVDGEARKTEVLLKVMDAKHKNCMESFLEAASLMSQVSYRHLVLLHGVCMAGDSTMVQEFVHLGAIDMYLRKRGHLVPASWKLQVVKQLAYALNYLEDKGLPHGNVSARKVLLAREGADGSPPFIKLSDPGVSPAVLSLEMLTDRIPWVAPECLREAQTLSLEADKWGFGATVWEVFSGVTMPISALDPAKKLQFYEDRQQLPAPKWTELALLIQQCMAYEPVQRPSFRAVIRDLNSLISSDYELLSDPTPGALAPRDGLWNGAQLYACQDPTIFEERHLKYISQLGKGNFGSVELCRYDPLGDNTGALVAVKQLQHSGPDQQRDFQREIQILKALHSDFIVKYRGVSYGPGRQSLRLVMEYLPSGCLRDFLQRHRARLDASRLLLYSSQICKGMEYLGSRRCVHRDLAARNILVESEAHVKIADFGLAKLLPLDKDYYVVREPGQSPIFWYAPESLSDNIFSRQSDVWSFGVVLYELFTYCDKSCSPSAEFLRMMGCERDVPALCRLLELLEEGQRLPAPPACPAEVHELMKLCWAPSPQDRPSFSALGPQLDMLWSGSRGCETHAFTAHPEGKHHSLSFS

SMILES | IC50 (JAK3; 4 uM ATP) [nM] | IC50 (JAK1) [nM] | JAK2/JAK1 (JAK1) | IC50 (JAK2) [nM] | IC50 (JAK3) [nM]
CN(c1c(C#N)cnc2[nH]ccc12)[C@H]1C[C@@H]2CN(S(=O)(=O)c3cccc(C(F)(F)F)c3)C[C@@H]2C1 [Compound H24] | 28 | 5.1 | 2.40 | 12.6 | 
CN(c1c(C#N)cnc2[nH]ccc12)[C@H]1C[C@@H](NS(=O)(=O)CCC(F)(F)F)C1 [Compound H10, 4-{[3-(3,3,3-trifluoropropanesulfonamido)-cyclobutyl-1-yl]-methyl-amino}-1H-pyrrolo[2,3-b]pyridin-5-carbonitrile] | 143 | 4.98 |  | 36 | 
C[C@H](O)C(=O)N1C[C@H]2C[C@H](N(C)c3c(C#N)cnc4[nH]ccc34)C[C@H]2C1 [Compound H23, (3aR,5S,6aS)-4-{[2-((2S)-2-hydroxypropionyl)-hexahydrocyclopenta[c]pyrrole-5-yl]-methyl-amino}-1H-pyrrolo[2,3-b]pyridin-5-carbonitrile] | 533 | 7.16 | 18.85 | 135 | 
C[C@@H]1CN(S(=O)(=O)C[C@H]2CC[C@H](N(C)c3c(C#N)cnc4[nH]ccc34)CC2)C[C@H]1CO (relative stereo) [Compound H66, 4-((trans-4-(((trans-3-(hydroxymethyl)-4-methylpyrrolidin-1-yl)sulfonyl)methyl)cyclohexyl)(methyl)amino)-1H-pyrrolo[2,3-b]pyridin-5-carbonitrile] | 197 | 8.9 | 14.16 | 126 | 
CN1CCN(S(=O)(=O)C[C@H]2CC[C@H](N(C)c3c(C#N)cnc4[nH]ccc34)CC2)CC1 [Compound H63, Trans-4-(methyl((1r,4r)-4-(((4-methylpiperazin-1-yl)sulfonyl)methyl)cyclohexyl)amino)-1H-pyrrolo[2,3-b]pyridin-5-carbonitrile] | 64 | 1.42 | 5.14 | 7.3 | 
CCOc1nc(NC(=O)N2C[C@H]3C[C@H](N(C)c4c(C#N)cnc5[nH]ccc45)C[C@H]3C2)no1 [Compound H48, (3aR,5s,6aS)-5-((5-cyano-1H-pyrrolo[2,3-b]pyridin-4-yl)(methyl)amino)-N-(5-ethoxy-1,2,4-oxadiazole-3-yl)hexahydrocyclopentadiene[c]pyrrole-2(1H)-carboxamide] | 56 | 0.86 | 8.60 | 7.4 | 
CC[C@@H]1CN(C(=O)NCC(C)(F)F)C[C@@H]1Nc1c(C#N)cnc2[nH]ccc12 (relative stereo) [Compound H89, (cis)-3-((5-cyano-1H-pyrrolo[2,3-b]pyridin-4-yl)amino)-N-(2,2-difluoropropyl)-4-ethylpyrrolidin-1-carboxamide] | 241 | 2.9 | 6.79 | 19.7 | 
CC[C@@H]1CN(C(=O)CCC(F)(F)F)C[C@@H]1Nc1c(C#N)cnc2[nH]ccc12 (relative stereo) [Compound H77, 4-(((cis)-4-ethyl-1-(4,4,4-trifluorobutyryl)pyrrolidin-3-yl)amino)-1H-pyrrolo[2,3-b]pyridin-5-carbonitrile] | 273 | 4.2 | 11.67 | 49 | 
CN(c1c(C#N)cnc2[nH]ccc12)[C@H]1C[C@@H]2CN(C(=O)Nc3nc(C(C)(C)C)ns3)C[C@@H]2C1 [Compound H21, (3aR,5s,6aS)-4-({2-[(3-tert-butyl-1,2,4-thiadiazole-5-yl)carbamoyl]-hexahydrocyclopenta [c]pyrrole-5-yl}-methyl-amino)-1H-pyrrolo[2,3-b]pyridin-5-carbonitrile] | 223 | 9.4 | 15.40 | 46 | 
CC[C@@H]1CN(C(=O)NCC(C)(C)C)C[C@@H]1Nc1c(C#N)cnc2[nH]ccc12 (relative stereo) [Compound H86, (cis)-3-((5-cyano-1H-pyrrolo[2,3-b]pyridin-4-yl)amino)-4-ethyl-N-neopentyl-pyrrolidin-1-carboxamide] | 169 | 1.41 | 20.57 | 29 | 
CC[C@@H]1CN(C(=O)NC(C)C)C[C@@H]1Nc1c(C#N)cnc2[nH]ccc12 (relative stereo) [Compound H75] |  |  |  | 17.3 | 89

More lines, in order of falling IC50 (JAK3; 4 uM ATP), values ahead:

IC50 (JAK3; 4 uM ATP) [nM] | IC50 (JAK1) [nM] | JAK2/JAK1 (JAK1) | IC50 (JAK2) [nM] | SMILES | IC50 (JAK3) [nM]
386 | 6.87 | 17.76 | 122 | COCC1CCN(S(=O)(=O)C[C@H]2CC[C@H](N(C)c3c(C#N)cnc4[nH]ccc34)CC2)C1 (stereo partly drawn) [Compound H68, 4-((trans-4-(((3-(methoxymethyl)pyrrolidin-1-yl)sulfonyl)methyl)cyclohexyl)(methyl)amino)-1H-pyrrolo[2,3-b]pyridin-5-carbonitrile] | 
171 | 5.6 | 5.89 | 33 | CN(c1c(C#N)cnc2[nH]ccc12)[C@H]1C[C@@H]2CN(S(=O)(=O)CCC(F)(F)F)C[C@@H]2C1 [Compound H27] | 
161 | 5.8 |  | 36 | COc1nsc(NC(=O)N2C[C@H]3C[C@H](Nc4c(C#N)cnc5[nH]ccc45)C[C@H]3C2)n1 [Compound H20, (3aR,5s,6aS)-5-((5-cyano-1H-pyrrolo[2,3-b]pyridin-4-yl)amino)-N-(3-methoxy-1,2,4-thiadiazole-5-yl)hexahydrocyclopentadiene[c]pyrrole-2(1H)-carboxamide] | 
153 | 5.6 | 6.25 | 35 | CC[C@@H]1CC(NS(=O)(=O)c2cccc(C(F)(F)F)c2)C[C@@H]1Nc1c(C#N)cnc2[nH]ccc12 (stereo partly drawn) [Compound H60, N-(3-((5-cyano-1H-pyrrolo[2,3-b]pyridin-4-yl)amino)-4-ethylcyclopentyl)-3-(trifluoromethyl)benzsulfamide] | 
130 | 2.67 | 7.49 | 20 | CCOc1noc(NC(=O)N2C[C@H]3C[C@H](N(C)c4c(C#N)cnc5[nH]ccc45)C[C@H]3C2)n1 [Compound H47, (3aR,5s,6aS)-5-((5-cyano-1H-pyrrolo[2,3-b]pyridin-4-yl)(methyl)amino)-N-(3-ethoxy-1,2,4-oxadiazole-5-yl)hexahydrocyclopentadiene[c]pyrrole-2(1H)-carboxamide] | 
112 | 0.86 | 9.19 | 7.9 | CC[C@@H]1CN(CCC#N)C[C@@H]1Nc1c(C#N)cnc2[nH]ccc12 (relative stereo) [Compound H88, 4-(((cis)-1-(2-cyanoethyl)-4-ethylpyrrolidin-3-yl)amino)-1H-pyrrolo[2,3-b]pyridin-5-carbonitrile] | 
68 | 1.13 | 8.67 | 9.8 | CCCS(=O)(=O)N[C@H]1C[C@@H](Nc2c(C#N)cnc3[nH]ccc23)C1 [Compound H46, (cis)-4-{[3-(propanesulfonamido)-cyclobutyl-1-yl]-amino}-1H-pyrrolo [2,3-b]pyridin-5-carbonitrile] | 
59 | 0.96 | 6.77 | 6.5 | CC[C@@H]1CN(C(=O)NCC(C)C)C[C@@H]1Nc1c(C#N)cnc2[nH]ccc12 (relative stereo) [Compound H79, (cis)-3-((5-cyano-1H-pyrrolo[2,3-b]pyridin-4-yl)amino)-4-ethyl-N-isobutylpyrrolidin-1-carboxamide] | 

— patent US12398141B2 (SHANGHAI SYNERGY PHARMACEUTICAL SCIENCES CO., LTD, priority 2019, dated 2025)
